Test results from EP4796538A1, “NOVEL QUINOXALINE COMPOUNDS, MANUFACTURING METHOD THEREOF, AND USES THEREOF” (Gachon University of Industry-Academic Cooperation …, priority 2023, dated 2025).
Where two headings read alike, the source gives them in different places.

Tests used:
[1] = biological target: T1, RET (Homo sapiens, UniProt P07949); assay: Kinase panel inhibition, radiolabeled [γ-33P] ATP (Reaction Biology Corp); format: biochemical; conditions: compound at 1 uM; ATP 10 µM; read-out: % Enzyme Activity (relative to DMSO controls) RET
T1 construct: purchased Reaction Biology Corp
Description: (§1) Using radiolabeled ATP ([γ-33P] ATP), the degree to which the substrate was replaced by a 33P-phosphorylated substrate was measured, and changes in kinase activity were determined from the measurement of the radiolabeled phosphorylated substrate.

[2] = biological target: T2, RET(G810R) (Homo sapiens, UniProt P07949, G810R); assay: as above; format: biochemical; conditions: ATP 10 µM, read-out: % Enzyme Activity (relative to DMSO controls) G810R; for remaining activity at 1 µM: compound at 1 uM
T2 construct: purchased Reaction Biology Corp
Description: as §1

[3] = biological target: T3, RET(V804M) (Homo sapiens, UniProt P07949, V804M); assay: as above; format: biochemical; conditions: compound at 1 uM; ATP 10 µM; read-out: % Enzyme Activity (relative to DMSO controls) V804M
T3 construct: purchased Reaction Biology Corp
Description: as §1

[4] = biological target: T4, RET (G810S/M918T) (Homo sapiens, UniProt P07949, G810S/M918T); assay: as above; format: biochemical; conditions: ATP 1 µM; for remaining activity at 30 µM: compound at 30uM; for remaining activity at 10 µM: compound at 10 uM
T4 construct: purchased Reaction Biology Corp
Description: as §1

[5] = system: BaF3 KIF5B-RET (G810R); assay: Cell proliferation inhibition, Cell Counting Kit-8, Ba/F3 cell line; format: cell-based, rodent; conditions: Mus musculus, 72 hours incubation, read-out: Cell Viability of BaF3 Cell lines (IC50 in uM) KIF5B-RET (G810R)
Description: Each cell line was seeded in a 96-well plate at 1×10^4 cells/90 µL/well, and 10 µL/well of culture medium containing each example and intermediate compound or DMSO control at 9 concentrations (1 nM to 100 µM) prepared by 3-fold serial dilutions was added to achieve a final concentration of 0 to 100 µM, followed by incubation for 72 hours in a 37°C, 5% CO2 incubator. After 72 hours of incubation, the compound-treated plates were removed, and Cell Counting Kit-8 solution was added at 10 µL/well and mixed well.
As a control compound, selpercatinib, a known RET inhibitor, was treated to calculate the IC50 values.

[6] = system: A-549; assay: Cell proliferation inhibition, Cell Counting Kit-8, non-small cell lung cancer cell line; format: cell-based; conditions: A-549 cell line; 72 hours incubation; test concentration not given
[7] = biological target: T5, RET-CCDC6 (PTC1) (Homo sapiens, UniProt P07949); assay: Kinase panel inhibition, radiolabeled [γ-33P] ATP (Reaction Biology Corp); format: biochemical; conditions: compound at 10 uM, ATP 1 µM
T5 construct: purchased Reaction Biology Corp
Description: as §1

[8] = Data 1, read-out: % Enzyme Activity (relative to DMSO controls) RET (G810S/M918T) Data 1
[9] = Data 2, read-out: % Enzyme Activity (relative to DMSO controls) RET (G810S/M918T) Data 2
[10] = Data 1, read-out: % Enzyme Activity (relative to DMSO controls) RET-CCDC6 (PTC1) Data 1
[11] = Data 2, read-out: % Enzyme Activity (relative to DMSO controls) RET-CCDC6 (PTC1) Data 2

T1 sequence (P07949 29-1114): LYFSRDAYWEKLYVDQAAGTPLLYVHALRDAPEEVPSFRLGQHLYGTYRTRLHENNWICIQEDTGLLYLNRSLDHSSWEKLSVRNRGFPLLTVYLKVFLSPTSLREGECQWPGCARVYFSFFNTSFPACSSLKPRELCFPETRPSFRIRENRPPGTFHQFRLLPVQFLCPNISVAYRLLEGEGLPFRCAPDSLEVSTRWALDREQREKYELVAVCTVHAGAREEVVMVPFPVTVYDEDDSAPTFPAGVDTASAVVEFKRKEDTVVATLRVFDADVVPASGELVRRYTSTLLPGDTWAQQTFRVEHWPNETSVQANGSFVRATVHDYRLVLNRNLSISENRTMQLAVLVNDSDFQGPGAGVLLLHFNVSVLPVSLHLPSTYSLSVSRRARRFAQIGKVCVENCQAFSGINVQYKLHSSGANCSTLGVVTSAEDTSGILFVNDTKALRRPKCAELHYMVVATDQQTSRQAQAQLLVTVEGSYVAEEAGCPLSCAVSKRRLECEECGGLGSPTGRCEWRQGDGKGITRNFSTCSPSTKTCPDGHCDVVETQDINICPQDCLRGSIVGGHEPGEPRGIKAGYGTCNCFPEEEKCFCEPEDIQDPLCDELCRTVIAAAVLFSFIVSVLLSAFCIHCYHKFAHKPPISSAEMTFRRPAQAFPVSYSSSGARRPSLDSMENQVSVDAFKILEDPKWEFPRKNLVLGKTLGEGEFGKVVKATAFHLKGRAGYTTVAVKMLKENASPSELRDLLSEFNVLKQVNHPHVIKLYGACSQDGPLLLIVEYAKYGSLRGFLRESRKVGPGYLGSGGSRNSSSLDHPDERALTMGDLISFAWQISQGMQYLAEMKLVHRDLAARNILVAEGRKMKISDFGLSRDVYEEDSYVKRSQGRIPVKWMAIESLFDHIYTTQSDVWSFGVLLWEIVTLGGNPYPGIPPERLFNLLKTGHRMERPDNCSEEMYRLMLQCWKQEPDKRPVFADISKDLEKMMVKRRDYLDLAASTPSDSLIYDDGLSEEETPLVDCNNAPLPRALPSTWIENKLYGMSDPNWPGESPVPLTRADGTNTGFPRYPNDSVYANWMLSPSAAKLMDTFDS
T4 sequence (P07949 29-1114 G810S/M918T): as the sequence (P07949 29-1114) above, with G782S, M890T counted along it
T3 sequence (P07949 29-1114 V804M): as the sequence (P07949 29-1114) above, with V776M counted along it
T5 sequence (P07949 whole entry, looked up): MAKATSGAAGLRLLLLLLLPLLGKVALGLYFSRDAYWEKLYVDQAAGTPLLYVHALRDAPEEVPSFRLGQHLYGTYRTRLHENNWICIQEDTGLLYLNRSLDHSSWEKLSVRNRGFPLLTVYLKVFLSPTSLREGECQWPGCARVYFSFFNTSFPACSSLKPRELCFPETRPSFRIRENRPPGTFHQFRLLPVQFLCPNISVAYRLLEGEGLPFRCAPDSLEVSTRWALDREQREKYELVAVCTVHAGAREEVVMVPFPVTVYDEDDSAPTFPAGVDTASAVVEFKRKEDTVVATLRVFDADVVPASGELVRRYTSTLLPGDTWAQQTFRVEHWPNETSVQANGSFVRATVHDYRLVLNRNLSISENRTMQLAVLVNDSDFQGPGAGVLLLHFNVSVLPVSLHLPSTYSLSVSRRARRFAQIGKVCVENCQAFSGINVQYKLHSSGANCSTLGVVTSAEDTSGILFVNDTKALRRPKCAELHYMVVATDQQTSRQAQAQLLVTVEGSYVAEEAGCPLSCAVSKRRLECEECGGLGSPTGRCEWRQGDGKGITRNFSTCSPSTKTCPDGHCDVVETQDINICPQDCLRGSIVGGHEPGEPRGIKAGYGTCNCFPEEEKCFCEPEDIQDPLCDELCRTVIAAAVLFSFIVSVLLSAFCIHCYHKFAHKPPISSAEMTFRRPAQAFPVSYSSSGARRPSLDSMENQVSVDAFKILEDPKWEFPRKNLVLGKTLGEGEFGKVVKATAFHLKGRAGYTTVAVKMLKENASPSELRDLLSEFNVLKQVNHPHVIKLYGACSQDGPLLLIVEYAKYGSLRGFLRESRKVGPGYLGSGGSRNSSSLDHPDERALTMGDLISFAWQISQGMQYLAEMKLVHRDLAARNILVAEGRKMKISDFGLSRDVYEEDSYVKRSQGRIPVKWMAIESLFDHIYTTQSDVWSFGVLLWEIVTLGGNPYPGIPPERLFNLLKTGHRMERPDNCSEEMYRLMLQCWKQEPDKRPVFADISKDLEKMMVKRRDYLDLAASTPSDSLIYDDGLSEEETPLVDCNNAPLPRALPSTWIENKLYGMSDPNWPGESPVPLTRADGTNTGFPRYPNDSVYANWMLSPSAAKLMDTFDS
T2 sequence (P07949 29-1114 G810R): as the sequence (P07949 29-1114) above, with G782R counted along it

Compound	remaining activity at 1 µM [1] [%]	remaining activity at 1 µM [2] [%]	remaining activity at 1 µM [3] [%]	remaining activity at 30 µM [4, 8] [%]	remaining activity at 30 µM [4, 9] [%]	IC50 [5] [µM]	Cell Proliferation (% of control) [6] [%]	remaining activity at 0.1 µM ([2]; compound at 0.1 uM) [%]	remaining activity at 10 µM [7, 10] [%]	remaining activity at 10 µM [7, 11] [%]	remaining activity at 10 µM [4, 8] [%]	remaining activity at 10 µM [4, 9] [%]
CCN(CC)c1cc(-c2ccc(N3CC(Oc4cccc(F)c4)C3)nc2)c2nccnc2c1 [Example 28, N,N-diethyl-8-(6-(3-(3-fluorophenoxy)azetidin-1-yl)pyridin-3-yl)quinoxalin-6-amine]	28.3	105	16.5	4.19	4.35	> 10	94.81	–	–	–	–	–
Nc1cc(-c2cnc(N3CC(Oc4cccc(F)c4)C3)nc2)c2nccnc2c1 [Example 29, 8-(2-(3-(3-fluorophenoxy)azetidin-1-yl)pyrimidin-5-yl)quinoxalin-6-amine]	–	–	–	–	–	–	12.87	76.3	1.22	1.07	0.28	0.11
Nc1cc(-c2cnc(N3CC[C@H](NC(=O)c4ccccc4F)C3)nc2)c2nccnc2c1 [Example 30, (S)-N-(1-(5-(7-aminoquinoxalin-5-yl)pyrimidin-2-yl)pyrrolidin-3-yl)-2-fluorobenzamide]	–	–	–	–	–	–	42.94	–	1.19	1.2	0.97	0.98
CCNc1cc(-c2ccc(F)nc2)c2nccnc2c1 [Intermediate Compound 6, N-ethyl-8-(6-fluoropyridin-3-yl)quinoxalin-6-amine]	57	97.9	59.3	18.2	17.2	4.44	–	–	–	–	–	–
O=C(Nc1cc(Br)c2nccnc2c1)c1ccco1 [Intermediate Compound 11, N-(8-bromoquinoxalin-6-yl)furan-2-carboxamide]	93.7	97.6	87.1	74.7	73	> 10	–	–	–	–	–	–
O=C(Nc1cc(-c2ccc(F)nc2)c2nccnc2c1)c1ccco1 [Intermediate Compound 13, N-(8-(6-fluoropyridin-3-yl)quinoxalin-6-yl)furan-2-carboxamide]	95.7	102	104	92.6	89.7	> 10	–	–	–	–	–	–
O=[N+]([O-])c1cc(-c2ccc(F)nc2)c2nccnc2c1 [Intermediate Compound 15, 5-(6-fluoropyridin-3-yl)-7-nitroquinoxaline]	93.5	99.5	94.9	97.4	99.4	–	–	–	–	–	–	–
CCNc1cc(Br)c2nccnc2c1 [Intermediate Compound 18, 8-Bromo-N-ethylquinoxalin-6-amine]	71.1	104	68.3	10.3	9.57	0.73	–	–	–	–	–	–
COc1ccc(CN2C3CC2CN(c2ccc(-c4cc(OCC(C)(C)O)cn5ncc(C#N)c45)cn2)C3)cn1 [Selpercatinib, selpercatinib, reference compound]	–	–	–	–	–	1.41	–	–	–	–	–	–
